The subject of the assay is platelets. Nature of the assay: Secretion of PN-2/βAPP from platelets after activation by agonists. It counts as cell-based. To be noted: freshly washed platelets, 10 minutes. The procedure: Secretion on PN-2/βAPP from platelets after activation by the agonists collagen or thrombin was studied. Briefly, fresh platelets washed by albumin density gradient centrifugation and gel filtration were incubated for 30 minutes at 37° C. in the absence or presence of the combined metabolic inhibitors antimycin A (15 μg/ml), 2-deoxy-D-glucose (30 mM), and D-gluconic acid δ-lactone (10 mM). The platelets were then placed into a cuvette 37° C. water bath with stirring at 1,200 rpm, and collagen (20 μg/ml or α-thrombin U/ml) was added. After 10 minutes, the samples were centrifuged at 12,000×g for 4 minutes and supernatants were collected. Aliquots were removed and quantitated for PN-2/βAPP by incubation with ^125 I-EGF BP and analysis of complex formation by SDS-PAGE and autoradiography as in Example 15. Autoradiograms were aligned with dried gels; ^125 I-EGF BP:PN-2/βAPP complexes were located, excised and quantitated in a […]. Aliquots were also quantitated for platelet markers as follows: total adenine nucleotide (ADP/ATP) secretion was measured by the method of Homsen et al., Anal. Biochem., 46:489 (1972); low affinity platelet factor 4 (LA-PF4) secretion was quantitated by the method of Rucinski et al., Blood, 53:47 (1979); and cytosolic lactate dehydrogenase (LDH) loss was assessed by the procedure of Wroblewski and Ladue, Proc. Soc. Exper. […]

Experimental findings from patent US5213962A, “Purification, detection and methods of use of protease Nexin-2” (The Regents of the University of California, priority 1992, dated 1993) are described below.

Consider collagen, for which the “secretion of total PN-2/βAPP present in the platelets” value was “approximately one-half”.

Turning to thrombin, the “secretion of total PN-2/βAPP present in the platelets” value is given as “approximately one-half”.
